# Test results: US9969763B2, “1,2,3-triazole-tethered carbohydrate-di and tri lipidated cysteine conjugates useful as vaccine adjuvants and process for preparation thereof” (Council of Scientific and Industrial Research, priority 2015, dated 2018)
# Where a SMILES comes first, the peptide text is derived from it. The star is where a group is joined. X1 = CCCCCCCCCCCCCCCC(=O)OCC(C*)OC(=O)CCCCCCCCCCCCCCC; Palmitoyl = CCCCCCCCCCCCCCCC(=O)*
# B1: OVA control: experimental weak antigen ovalbumin (cat no. A5503, Sigma-Aldrich) given alone as antigen control (protein, UniProt P01012 2-386, looked up)
# Ovalbumin: GSIGAASMEFCFDVFKELKVHHANENIFYCPIAIMSALAMVYLGAKDSTRTQINKVVRFDKLPGFGDSIEAQCGTSVNVHSSLRDILNQITKPNDVYSFSLASRLYAEERYPILPEYLQCVKELYRGGLEPINFQTAADQARELINSWVESQTNGIIRNVLQPSSVDSQTAMVLVNAIVFKGLWEKAFKDEDTQAMPFRVTEQESKPVQMMYQIGLFRVASMASEKMKILELPFASGTMSMLVLLPDEVSGLEQLESIINFEKLTEWTSSNVMEERKIKVYLPRMKMEEKYNLTSVLMAMGITDVFSSSANLSGISSAESLKISQAVHAAHAEINEAGREVVGSAEAGVDAASVSEEFRADHPFLFCIKHIATNAVLFFGRCVSP
# Columns and labels:
# [1] = test system: cytokines IL-2, IL-12, IFN-γ, TNF-α, IL-10, IL-6; test: Cytokine expression on immunization with OVA (ELISA); format: in vivo, BALB/c mice; conditions: OVA antigen
# Method: (§1) 13.1 Preparation and immunization of the vaccine: Male BALB/c mice (Procured from laboratory animal facility of National Institute of Nutrition, Hyderabad, IAEC No. IICT/Bio/fox/PG/1/02/2013) were immunized subcutaneously with different groups according to various concentrations of conjugates covered in examples 1-12, preferably 2 to 80 μg/dose, more preferably 6 to 50 μg/dose, most preferably 8 to 40 μg/dose, along with PBS (car no. TS1006, Himedia)and antigen control. A booster dose was given on 14th day and sacrificed 2 weeks after booster.
# (§2) 1.2.2 Cytokine expression on immunization: ELISA was carried out by Opti Elisa Kit (cat no. 560485, BD biosciences, USA). Briefly, 96-Well plates were coated with capture antibody dissolved in coating buffer. Wells were blocked with PBS containing 0.05% Tween-20 for 1h at RT. After blocking, 100 μL/well of supernatant was added and incubated for overnight at 4° C. After washing, biotinylated secondary antibody was added along with enzyme. Plates were incubated for 1h at RT. Then plates were washed and substrate solution was added. The reaction was stopped and the absorbance was measured at 450 nm in ELISA reader (BioTek-Elx800).
# rat RBCs = format: cell-based; conditions: red cells of rat
# Method: 2.2.7 Hemolytic assay: Different concentration of test compounds were tested with fixed volume concentration of rat RBCs. After incubation for 30 min the percentage of hemolysis was determined by comparing the absorbance (k=540 nm) of the supernatant with that of distilled water as positive control.
# OVA antigen = test: Antibody titre against OVA antigen and isotypes (ELISA); format: in vivo, BALB/c mice; conditions: 28th day; for IgG titer: serum anti-OVA; for IgG1 titer / IgG 2a titer: serum, OVA immunized mice
# Method: as §1
# (§3) 1.2.2 Antibody titre against OVA antigen: From the immunized mice retro-orbital sampling or retro-orbital blood was collected on 14th and 28th day before sacrifice. Serum was separated by centrifugation at 12,500 rpm for 5 min. Transferred to a clean centrifuge tube and store at −80 until used. The plates were coated with OVA (1 μg/well) in carbonate buffer. Plates were incubated at 4° C., overnight. They were then washed 3 times with PBS/Tween, and non-specific binding sites were blocked by adding 200 μl of blocking solution. Plates were incubated at room temperature for 1 h. Then 3 times wash is done, diluted standards and samples to desired concentrations in blocking solution were added to the plates. Incubate at 37° C. for 1 h or at 4° C., overnight. Plates were washed 3 times with PBS/Tween. Avidin-Horseradish Peroxidase (Av-HRP, cat no. 45210, Biolegend, USA) was diluted and added. Incubated at room temperature for 30 min. Plates were washed 3 times with PBS/Tween. Substrate was added, mix equal volumes of TMB Reagent A and B(cat no. 421101, Biolegend, USA) immediately prior to use. Plates were incubated at room temperature (4-30 min) for color development. Color reaction was stopped by adding 50 μl of stop solution. Optical density (OD) was read at 450 nm.
# (§4) 1.2.3 Isotypes of antigen specific antibody: The plates were coated with diluted unlabeled capture antibody to a final concentration of 0.5-8 μg/ml. Plates were incubated at 4° C. overnight. They were then washed 3 times with PBS/Tween, and non-specific binding sites were blocked by adding 200 μl of blocking solution. Plates were incubated at room temperature for 1 h. Washing is done thrice, diluted standards and samples to desire concentrations in blocking solution were added to the plates. Incubate at room temperature for 2-4 h or at 4° C., overnight. Plates were washed 3 times with PBS/Tween. Detection antibodies were added 0.25-2 μg/ml in blocking buffer, followed by incubation at room temperature for 1 h. Plates were washed 3 times with PBS/Tween. Avidin-Horseradish Peroxidase (Av-HRP) was diluted and added. Incubated at room temperature for 30 min. Plates were washed 5 times with PBS/Tween. Substrate was added, mix equal volumes of TMB Reagent A and B immediately prior to use. Plates were incubated at room temperature (0.4-30 min) for color development. Color reaction was stopped by adding 50 μl of stop solution. Optical density (OD) was read at 450 nm.
# IgG1 and IgG2a were measured by sandwich ELISA.
# [2] = test system: extracellular markers CD4, CD8, CD80, CD86, CD40; test: Immunophenotyping, staining for extracellular markers (flow cytometry); format: cell-based
# Method: 2.2.5 Immunophenotyping—Staining for extracellular markers: Staining was as per the manufacturer's protocol and run on a BD FACSVerse flow cytometer (cat nos. 557596, 553047, 560016 and 553723; BD Biosciences, USA). Compensation was established using BD Biosciences compensation beads. Post acquisition flow cytometry analysis was performed using FACS Suite software and data were represent in the mean fluorescence intensity values.
# in vitro = format: cell-based; conditions: rat, NRK-49F rat kidney cells
# Method: 2.2.6 In vitro cytotoxicity evaluation by MTT assay: Rat kidney cell line NRK-49F (NCCS, Pune) was exposed to varying doses of test compounds in the range of […], to determine the toxicity after 48 h of incubation. The colorimetric MTT assay was used to evaluate cell viability which is determined based on reduction of MTT to blue formazan crystals by the mitochondrial succinate dehydrogenase enzymes of viable cells.
# Splenocytes [3] = test: HBsAg stimulated splenocyte proliferation in immunized mice; format: in vivo, BALB/c mice; conditions: HBsAg antigen; conjugates 2-80 μg
# Method: (§5) 1.2.1 Proliferation of immune cells: Splenocytes were seeded into 96 well flat bottom microtiter plates having 1×10^5 cells/well in complete RPMI-1640 medium (cat no. AT028-1L, Himedia). Plates were incubated at 37° C., with 5% CO2 incubator. After 48 h of incubation 20 μl of Triazolyl blue Tetrazolium Bromide (MTT) (cat no. M2128, Sigma-Aldrich. St. Louis, Mo.) solution (5 mg/mL) was added to each well, incubated for next 4 h. Untransformed MTT was removed from each well by aspirating the supernatant (180 μL)and replaced with DMSO (Sigma-Aldrich, St. Louis, Mo.). The absorbance was read at 630 nm after 15 min.
# Vaccine was formulated with Hepatitis B antigen (HBsAg, cat. No HBS-870-c, ProspecBio, Israel))alone or with various adjuvants like Pam3CSK4 and their analogues. The adjuvanticity induced by each of the vaccine is determined by antibody titre, cytokine production and proliferation of immune cells.
# (§6) Male BALB/c mice were immunized with different groups according to various concentrations of (conjugates)preferably 2 to 80 μg/dose, more preferably 6 to 50 μg/dose, most preferably 8 to 40 μg/dose, along with PBS and HBsAg antigen control. A booster dose was given on 14th day and sacrificed 2 weeks after booster.
# 2.2.1 Proliferation of immune cells: Splenocyte proliferation was measured by the same method as described in Example 13 except that HBsAg antigen. […]
# [4] = test system: cytokines IL-2, IL-12, IFN-γ, TNF-α, IL-10, IL-6; test: Cytokine expression on immunization with HBsAg (ELISA); format: in vivo, BALB/c mice; conditions: HBsAg antigen
# Method: as §2, §6
# 2.2.2 Cytokine expression on immunization: Cytokine expression was measured by the same method as described in the Example 13 except that HBsAg antigen.
# Splenocytes [5] = test: OVA stimulated splenocyte proliferation (MTT) in immunized mice; format: in vivo, BALB/c mice; conditions: OVA antigen; mice immunized s.c., conjugates 2-80 μg, booster 14th day; MTT after 48 h
# Method: as §1, §5
# All triazolyl adjuvant conjugates induced splenocyte proliferation responses at the dose of 2-80 μg.
# HBsAg antigen = test: Antibody titre against HBsAg antigen (ELISA); format: in vivo, BALB/c mice; conditions: 28th day; for IgG titer: serum anti-HBsAg; for IgG1 titer / IgG 2a titer: serum, HBsAg immunized mice
# Method: as §3, §4, §6
# 2.2.3 Antibody titre against HBsAg antigen: Antibody titer was determined by the same method as described in the Example 13 except that HBsAg antigen.
# Antibody titres IgG, IgG1 and IgG2a were measured by sandwich ELISA.
# Human TLR-2 = biological target: T1, Human TLR-2 (Homo sapiens, UniProt O60603); test: Human TLR-2 reporter gene assay (NF-κB induction, SEAP); format: cell-based; conditions: HEK-Blue hTLR2 cells, 24 h
# T1 construct: host or cells: HEK-Blue hTLR2 cells (HEK293-derived reporter line)
# Method: 2.2.4 Human TLR-2 reporter gene assays (NF-κB induction): The assay was performed as per the manufacturer's instructions. HEK-Blue™ hTLR2 cells (cat no. hkb-htlr2, Invivogen, USA, 25,000 cells per well) were harvested in HEK-Blue™ selection medium containing normocin treated with the compounds and the plate were incubated at 37° C. in 5% CO2 for 24 h. SEAP (secreted embryonic alkaline phosphatase) can be observed with naked eye and determined using a spectrophotometer at 620-655 nm.
# T1 sequence (O60603 21-784): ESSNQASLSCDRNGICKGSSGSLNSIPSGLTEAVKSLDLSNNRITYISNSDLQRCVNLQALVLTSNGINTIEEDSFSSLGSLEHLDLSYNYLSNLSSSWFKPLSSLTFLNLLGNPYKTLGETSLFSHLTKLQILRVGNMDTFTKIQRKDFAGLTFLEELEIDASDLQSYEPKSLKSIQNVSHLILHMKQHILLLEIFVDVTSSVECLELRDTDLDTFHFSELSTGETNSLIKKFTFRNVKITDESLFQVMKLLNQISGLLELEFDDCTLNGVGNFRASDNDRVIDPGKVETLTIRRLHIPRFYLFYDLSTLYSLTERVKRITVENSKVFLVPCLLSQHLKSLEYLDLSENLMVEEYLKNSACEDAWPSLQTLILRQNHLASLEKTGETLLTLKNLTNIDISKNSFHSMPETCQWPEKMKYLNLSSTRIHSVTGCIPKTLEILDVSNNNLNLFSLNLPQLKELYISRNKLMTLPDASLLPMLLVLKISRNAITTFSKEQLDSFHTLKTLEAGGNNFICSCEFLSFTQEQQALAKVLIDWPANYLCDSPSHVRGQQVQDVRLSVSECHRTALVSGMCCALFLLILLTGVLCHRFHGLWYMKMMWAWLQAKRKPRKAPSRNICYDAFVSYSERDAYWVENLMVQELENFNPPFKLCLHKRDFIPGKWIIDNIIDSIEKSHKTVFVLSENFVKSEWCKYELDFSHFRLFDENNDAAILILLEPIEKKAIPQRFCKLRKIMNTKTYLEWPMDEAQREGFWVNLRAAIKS
molecule,measurement,setting,value
CCCCCCCCCCCCCCCC(=O)N[C@@H](CSCC(COC(=O)CCCCCCCCCCCCCCC)OC(=O)CCCCCCCCCCCCCCC)C(=O)N[C@@H](CO)C(=O)N[C@@H](CCCCN)C(=O)N[C@@H](CCCCN)C(=O)N[C@@H](CCCCN)C(=O)N[C@@H](CCCCN)C(=O)O (stereo partly shown) [Standard (VacciGrade Pam3Cys) control] (Palmitoyl-C(X1)SKKKK-OH; N-terminus and C-terminus assumed),Serum cytokines IFN-γ,[1],100 to 140 pg/mL
same,Serum cytokines IL-2,[1],100 to 150 pg/mL
same,Serum cytokines IL-6,[1],100 to 120 pg/mL
same,Serum cytokines IL-10,[1],180 to 220 pg/mL
same,Serum cytokines IL-12,[1],80 to 140 pg/mL
same,Serum cytokines TNF-α,[1],150 to 200 pg/mL
same,% Hemolysis,rat RBCs,2-5%
same,IgG titer,OVA antigen,102400-819200
same,IgG1 titer,OVA antigen,102400-1638400
same,IgG 2a titer,OVA antigen,102400-3276800
same,Immunophenotyping (MFI) CD4,[2],1400-3000 MFI
same,Immunophenotyping (MFI) CD8,[2],2000-4000 MFI
same,Immunophenotyping (MFI) CD40,[2],1000-2500 MFI
same,Immunophenotyping (MFI) CD80,[2],1600-2500 MFI
same,Immunophenotyping (MFI) CD86,[2],1200-2000 MFI
same,viability at 48 h,in vitro,95 to 100%
same,Splenocyte proliferation,Splenocytes [3],250-500
same,Serum cytokines IFN-γ,[4],250 to 325 pg/mL
same,Serum cytokines IL-2,[4],250 to 300 pg/mL
same,Serum cytokines IL-6,[4],250 to 295 pg/mL
same,Serum cytokines IL-10,[4],325 to 475 pg/mL
same,Serum cytokines IL-12,[4],150 to 250 pg/mL
same,Serum cytokines TNF-α,[4],275 to 400 pg/mL
same,Splenocyte proliferation,Splenocytes [5],200-350
same,IgG titer,HBsAg antigen,204800-819200
same,IgG1 titer,HBsAg antigen,102400-409600
same,IgG 2a titer,HBsAg antigen,204800-3276800
same,"TLR Ligand activity, SEAP Absorbance (655 nm)",Human TLR-2,1.2-2
B1,IgG titer,OVA antigen,6400-12800
same,IgG1 titer,OVA antigen,6400-25600
same,IgG 2a titer,OVA antigen,6400-12800
same,IgG titer,HBsAg antigen,12800-51200
same,IgG1 titer,HBsAg antigen,12800-102400
same,IgG 2a titer,HBsAg antigen,12800-51200
